Several values for one entry are separate records, joined by “and”; a condition that tells them apart may be missing. Equal entries are not always repeated.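 Growth conditions: 96-well plates. Treatment: test compound, 48 hours, 5 concentrations. Analysis: linear interpolation between bracketing concentrations; unreached endpoints set to highest concentration. Abbreviation: GI50, concentration required for 50% inhibition of growth. TGI: concentration producing complete growth inhibition.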
Assays:
Assay in all cases: inhibition of tumour cell growth, NCI panel, 48 h
786-0 renal = test system: 786-0 renal
MDA-MB-231 breast = test system: MDA-MB-231 breast
NCI-H226 lung = test system: NCI-H226 lung
NCI-H23 lung = test system: NCI-H23 lung
RPMI-8226 leukemia = test system: RPMI-8226 leukemia
SF-268 CNS = test system: SF-268 CNS
SF-295 CNS = test system: SF-295 CNS
SR leukemia = test system: SR leukemia
UACC-257 melanoma = test system: UACC-257 melanoma
UACC-62 melanoma = test system: UACC-62 melanoma

SMILES	GI50 (786-0 renal) [µM]	TGI (786-0 renal)	GI50 (MDA-MB-231 breast)	TGI (MDA-MB-231 breast)	GI50 (NCI-H226 lung)	TGI (NCI-H226 lung)	GI50 (NCI-H23 lung)	TGI (NCI-H23 lung)	GI50 (RPMI-8226 leukemia) [µM]	TGI (RPMI-8226 leukemia) [µM]	GI50 (SF-268 CNS) [µM]	TGI (SF-268 CNS)	GI50 (SF-295 CNS)	TGI (SF-295 CNS)	GI50 (SR leukemia) [µM]	TGI (SR leukemia) [µM]	GI50 (UACC-257 melanoma) [µM]	TGI (UACC-257 melanoma)	GI50 (UACC-62 melanoma) [µM]	TGI (UACC-62 melanoma)
COc1cc(C=NCC(=O)CSC(c2ccccc2)c2ccccc2)ccc1O	14.9	28.2 µM	12.8 µM	26.7 µM	16.8 µM	38.5 µM	8 µM	20.5 µM	6.26	25.1	17.2	40 µM	14.6 µM	46.9 µM	8.27	25.3	5.94	18.7 µM	13.6	27.5 µM
BrCc1ccc2ccc3ccc(CBr)nc3c2n1		7.58 µM		6.86 µM		15 µM		19.4 µM		> 100		9.04 µM		28.6 µM		5.54		14.1 µM		> 37.8 µM
Cc1cc(C)c(-c2c(O)c(Br)c(-c3c(C)cc(C)c(Br)c3C)c(O)c2Br)c(C)c1Br	3.74	14.3 µM	1.65 µM	4.42 µM	2.54 µM	9.52 µM	3.21 µM	11.8 µM	2.08	11.9	3.7	16.4 µM	1.83 µM	5.01 µM	2.32	8.29	2.52	12.2 µM	1.54	4.04 µM
O=C(O)C(Cc1ccccc1)N1C(=O)/C(=C/C(Cl)=C/c2ccc([N+](=O)[O-])cc2)SC1=S (stereo not given)	2.2	5.02 µM	3.35 µM	> 100 µM	1.58 µM	3.27 µM	2.13 µM	4.86 µM	3.22	> 100			2.59 µM	7.85 µM	2.45	> 100	1.97	4.95 µM	2	4.85 µM
O=C(O)CCN1C(=S)CSC1=S		> 100 µM		> 100 µM		> 100 µM		> 100 µM		> 100		> 100 µM		> 100 µM		> 100		> 100 µM		> 100 µM
C/C(=N\NC(=S)N1CCCC1)c1ccccn1	0.047	11 µM	< 0.0348 µM	16.2 µM	< 0.01 µM	2.85 µM	< 0.01 µM	42.8 µM	< 0.01	15.6	0.0261	12.7 µM	< 0.01 µM	5.9 µM	< 0.01	> 49.9	< 0.01	0.166 µM	0.09	0.534 µM
CN(C)CCN=c1nc2c(c(N)n1-c1ccccc1)c(=S)n(-c1ccccc1)c(=S)n2-c1ccccc1	1.33	3.93 µM	1.16 µM	4.05 µM	13 µM	27.6 µM	13.2 µM	31.9 µM	0.587		3.34	15.1 µM	2.31 µM	6.37 µM	1.36	3.34	1.91	3.75 µM	1.78	3.41 µM
CC(C)(C)OC(=O)NCCCCCCCCCCCCn1c2c(c3ccccc3c1=O)C(=O)c1ccccc1-2	18.3	50.6 µM	21 µM	58.9 µM	58.1 µM	> 100 µM	36.9 µM	> 100 µM	> 100	> 100	26.8	> 100 µM	17.5 µM	53 µM	35	> 100	> 100	> 100 µM	27.4	> 100 µM
COc1ccc(C(=O)Cn2c(C(=O)c3ccc(Cl)cc3)nc(-c3ccccc3)c2-c2ccccc2)cc1	79.6	> 100 µM	44 µM	> 100 µM	> 100 µM	> 100 µM	> 100 µM	> 100 µM	> 100	> 100	> 100	> 100 µM	91 µM	> 100 µM	> 100	> 100	> 100	> 100 µM	> 100	> 100 µM
COC1CCC(OC)C(c2nc3sccn3c2/C=N/N=C(N)N)C1 (stereo not given)	19.7	47 µM	1.68 µM	32.8 µM	13.6 µM	47.5 µM	3.69 µM	> 35.5 µM	4.18	43.9	18.5	45.8 µM	16.5 µM	34.1 µM	0.0201	15	5.61	44.1 µM	16.6	32.4 µM
C=C(CN1CCN(c2ccccn2)CC1)c1ccc(C(=O)Nc2ccccc2N)cc1	1.2	8.15 µM	2.17 µM	> 50 µM			0.939 µM	2.44 µM	1.6	> 50	1.66	9.22 µM	1.39 µM	6.52 µM	5.33	> 50	2.32	> 50 µM	1.41	9.99 µM
Cc1c(-c2ccc(-c3ccccc3F)cc2)nc2ccc(F)cc2c1C(=O)O	0.5	97.7 µM and 291 µM	89.8 µM and 30.5 µM	146 µM and 250 µM	38.3 µM and 29.4 µM	216 µM and 209 µM	17.4 µM and 35.1 µM	173 µM and 529 µM	0.811			173 µM and 866 µM	0.163 µM and 1.37 µM	43.6 µM and 48.6 µM and 210 µM				155 µM and 236 µM	0.5	48.4 µM and 164 µM
CCOC(=O)C(Cc1cc(OC)c(CC(C(=O)OCC)C(=O)OCC)cc1OC)C(=O)OCC		> 100 µM		> 100 µM		> 100 µM		> 100 µM		> 100		> 100 µM		> 100 µM		> 100		> 100 µM		> 100 µM
CCOC(=O)/C=C/c1ccc([N+](=O)[O-])o1	2.13	4.67 µM	3.51 µM	11.6 µM	2.02 µM	4.25 µM	4.12 µM	18.4 µM	3.18	12.2	5.38	40.5 µM	19.7 µM	48.2 µM	1.64	26.1	2.74	11.4 µM	1.71	4.36 µM

— PubChem BioAssay (NCI)
